# Assay results reported in patent US20250382346A1, “NEURONAL PROMOTERS AND USES THEREOF” (priority 2023, published 2025).
# Target: T1, rM3Ds (Rattus norvegicus, UniProt P08483, A177S/A238G/A489L/DEL261-437/DEL441-478/E258S/I253V/I483M/INS256[…]/K178L/K182A/K255R/K484R/K486H/L173F/L482A/M480V/R171S/R176Q/R179M/S481M/T174R/T181R/T257A/Y148C)
# T1 sequence (P08483 with tags, fused parts or gaps Y148C/R171S/L173F/T174R/R176Q/A177S/K178L/R179M/T181R/K182A/A238G/I253V/K255R/INS256[…]/T257A/E258S/DEL261-437/DEL441-478/M480V/S481M/L482A/I483M/K484R/K486H/A489L): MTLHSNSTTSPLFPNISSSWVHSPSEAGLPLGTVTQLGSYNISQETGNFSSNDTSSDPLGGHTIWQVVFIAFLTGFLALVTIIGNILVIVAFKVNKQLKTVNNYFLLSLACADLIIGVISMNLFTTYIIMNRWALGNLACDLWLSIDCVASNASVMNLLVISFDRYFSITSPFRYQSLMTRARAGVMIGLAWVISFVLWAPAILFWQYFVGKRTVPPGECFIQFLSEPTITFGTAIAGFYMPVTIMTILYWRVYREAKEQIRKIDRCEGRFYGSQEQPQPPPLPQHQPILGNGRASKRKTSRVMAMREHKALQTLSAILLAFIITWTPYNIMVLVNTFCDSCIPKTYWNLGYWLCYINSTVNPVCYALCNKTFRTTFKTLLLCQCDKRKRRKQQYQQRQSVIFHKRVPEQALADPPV
# Experiment: 6-OHDA parkinsonian mouse model: open field and rotarod
# Type: in vivo
# Set-up: 2A-EYFP (C); expressed in transfected cells; host or cells: neurons (striatal D1-MSNs) of mice or cynomolgus macaques, transduced in vivo by nigral AAV8R12-G88P7-rM3Ds-2A-EYFP
# Settings: AAV8R12-G88P7-rM3Ds-2A-EYFP, 6-OHDA mice
# Procedure: Rodent Parkinson's disease mice models were created through bilateral injection of 6-OHDA using the same methods as described in virus injections (Example 3). A total volume of 1 ul 6-OHDA (5 mg/ml, dissolved in sterile saline containing 0.02% ascorbic acid, Sigma) was injected into the striatum at a speed of 100 nL/min. The coordinates for striatum were 0.5 mm anterior, 1.5 mm lateral, 3.2 mm ventral to the bregma. A premedication of desipramine (25 mg/kg, Sigma) was administered to animals prior to injections of 6-OHDA, in order to increase the selectivity and efficacy of 6-OHDA-induced lesions. Mice were supplemented with DietGel (ClearH2O) for one-week post-surgery. All staining and behavioral experiments were performed at least 14 days following surgery, when the amount of dopamine depletion was maximal and stable.
# To investigate the efficacy and safety of D1-MSN specific neuromodulation strategy, AAV8R12-G88P7-rM3Ds-2A-EYFP was injected into the SNr of adult C57/BL6 mice. 6-OHDA was administered bilaterally into the striatum (FIG. 13A). […]
# Mice were individually handled for 10-20 seconds per day for at least 5 days to habituate them to the experimenter. […] The behavioral data were analyzed with ANY-maze software (Stoelting Co.).
# Mice were individually handled as described in the open field test. […] Latency to fall for each trial was automatically recorded by the apparatus. […]
compound,measurement,setting,value
"C[N+]1([O-])CCN(C2=Nc3cc(Cl)ccc3Nc3ccccc32)CC1 [CNO, Clozapine-N-oxide]","motor skill, rotarod test",CNO,partially rescued the motor skill deficit
same,spontaneous movement in an open field,systemic CNO,drastically reversed the dyskinesia-like phenotype of PD mice
